Tests used:
[1] = molecular target: T1, GTPBP5 (GTPBP5::FLAG; GTPBP5^IP) (Homo sapiens, UniProt Q9H4K7); test: cryo-EM structure; type: binding; details: co-purified, not added; G-domain active site; switch I in state 2, bound to mt-LSU assembly intermediate
T1 construct: gene MTG2; Obg-domain and G-domain
T1 sequence (Q9H4K7 1-406): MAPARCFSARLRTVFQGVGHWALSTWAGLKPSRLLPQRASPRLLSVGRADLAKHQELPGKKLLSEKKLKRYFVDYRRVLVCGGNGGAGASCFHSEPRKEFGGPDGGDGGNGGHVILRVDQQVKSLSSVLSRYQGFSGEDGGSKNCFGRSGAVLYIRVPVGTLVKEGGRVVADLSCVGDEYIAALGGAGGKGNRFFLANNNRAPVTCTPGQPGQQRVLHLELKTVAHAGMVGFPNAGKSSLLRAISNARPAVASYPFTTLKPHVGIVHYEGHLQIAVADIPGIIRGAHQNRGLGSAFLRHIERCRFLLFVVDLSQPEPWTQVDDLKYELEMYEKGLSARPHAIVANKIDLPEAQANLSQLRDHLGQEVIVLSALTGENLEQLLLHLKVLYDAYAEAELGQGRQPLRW

[2] = molecular target: T2, NSUN4 (MTERF4-NSUN4 complex) (Homo sapiens, UniProt Q96CB9); test: cryo-EM structure; type: binding; details: no RNA substrate in active site; co-purified, not added; complex bound to mt-LSU assembly intermediates
T2 construct: with Transcription termination factor 4, mitochondrial
T2 sequence (Q96CB9 26-384): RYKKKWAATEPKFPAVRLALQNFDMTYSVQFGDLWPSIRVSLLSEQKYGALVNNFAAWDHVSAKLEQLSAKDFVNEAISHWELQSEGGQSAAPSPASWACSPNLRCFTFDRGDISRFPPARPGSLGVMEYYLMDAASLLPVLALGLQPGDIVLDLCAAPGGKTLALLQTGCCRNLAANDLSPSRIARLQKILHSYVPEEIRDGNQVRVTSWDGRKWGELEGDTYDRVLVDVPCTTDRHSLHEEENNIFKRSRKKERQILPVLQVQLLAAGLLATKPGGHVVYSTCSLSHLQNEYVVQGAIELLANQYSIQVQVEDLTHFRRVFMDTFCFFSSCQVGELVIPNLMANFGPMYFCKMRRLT
T2 sequence (Q7Z6M4 43-381 partner): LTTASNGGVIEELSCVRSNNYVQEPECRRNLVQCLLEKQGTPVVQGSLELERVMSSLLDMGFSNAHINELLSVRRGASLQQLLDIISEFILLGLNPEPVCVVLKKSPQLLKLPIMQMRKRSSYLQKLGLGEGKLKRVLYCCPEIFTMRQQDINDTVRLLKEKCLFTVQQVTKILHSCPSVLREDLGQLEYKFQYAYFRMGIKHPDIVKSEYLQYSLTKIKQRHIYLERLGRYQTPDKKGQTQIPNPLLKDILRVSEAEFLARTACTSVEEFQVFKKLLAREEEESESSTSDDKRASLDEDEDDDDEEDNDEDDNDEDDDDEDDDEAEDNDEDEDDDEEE

Row | Compound | cryo-EM structure [1] | cryo-EM structure [2]
1 | Nc1nc2c(ncn2[C@@H]2O[C@H](COP(=O)(O)OP(=O)(O)OP(=O)(O)O)[C@@H](O)[C@H]2O)c(=O)[nH]1 [GTP] | In our GTPBP5^IP structure, the G-domain has GTP in its active site | 
2 | C[S+](CC[C@H](N)C(=O)O)C[C@H]1O[C@@H](n2cnc3c(N)ncnc32)[C@H](O)[C@@H]1O (some centres unmarked) [S-adenosyl-methionine] |  | the methyl-donor S-adenosyl-methionine (SAM) is observed in the NSUN4 active site
